# Measured values taken from the supplement of paper PMC10307832.
# What was measured:
# Assay in all cases: relative viability (nuclei count vs DMSO), 5 days (fraction); higher = more cells survive
# JZL-184 + Vorinostat = compound: C1CN(CCC1C(C2=CC3=C(C=C2)OCO3)(C4=CC5=C(C=C4)OCO5)O)C(=O)OC6=CC=C(C=C6)[N+](=O)[O-] [JZL-184] + O=C(CCCCCCC(=O)Nc1ccccc1)NO [Vorinostat] (partner 1 µM)
# Outline: (§1)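 The day after seeding in 1536-well plates, lung cancer cell lines were treated by pin tool with a single drug, or with a fixed anchor-drug dose together with five library-drug doses (not always all listed) in √10 steps. After 5 days, a combined fix-and-stain solution (final 0.05% Triton X-100, 1% formaldehyde, 1 ug/ml Hoechst) was added. Nuclei counted on 4× images gave relative viability as treated counts over vehicle counts, reported as the median of duplicate plates.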
# JZL-184 + Olaparib = compound: C1CN(CCC1C(C2=CC3=C(C=C2)OCO3)(C4=CC5=C(C=C4)OCO5)O)C(=O)OC6=CC=C(C=C6)[N+](=O)[O-] [JZL-184] + O=C(c1cc(Cc2n[nH]c(=O)c3ccccc23)ccc1F)N1CCN(C(=O)C2CC2)CC1 [Olaparib] (partner 8 µM)
# Outline: as §1
# JZL-184 + Decitabine = compound: C1CN(CCC1C(C2=CC3=C(C=C2)OCO3)(C4=CC5=C(C=C4)OCO5)O)C(=O)OC6=CC=C(C=C6)[N+](=O)[O-] [JZL-184] + Nc1ncn([C@H]2C[C@H](O)[C@@H](CO)O2)c(=O)n1 [Decitabine] (partner 2 µM)
# Outline: as §1
# JZL-184 + Alpelisib = compound: C1CN(CCC1C(C2=CC3=C(C=C2)OCO3)(C4=CC5=C(C=C4)OCO5)O)C(=O)OC6=CC=C(C=C6)[N+](=O)[O-] [JZL-184] + Cc1nc(NC(=O)N2CCC[C@H]2C(N)=O)sc1-c1ccnc(C(C)(C)C(F)(F)F)c1 [Alpelisib] (partner 2 µM)
# Outline: as §1
# JZL-184 + Pemetrexed = compound: C1CN(CCC1C(C2=CC3=C(C=C2)OCO3)(C4=CC5=C(C=C4)OCO5)O)C(=O)OC6=CC=C(C=C6)[N+](=O)[O-] [JZL-184] + Nc1nc2[nH]cc(CCc3ccc(C(=O)N[C@@H](CCC(=O)O)C(=O)O)cc3)c2c(=O)[nH]1 [Pemetrexed] (partner 0.2 µM)
# Outline: as §1
Cell Line,relative viability (JZL-184 + Vorinostat; first compound 0.04 µM),relative viability (JZL-184 + Vorinostat; first compound 0.4 µM),relative viability (JZL-184 + Vorinostat; first compound 1.265 µM),relative viability (JZL-184 + Vorinostat; first compound 4 µM),relative viability (JZL-184 + Olaparib; first compound 0.04 µM),relative viability (JZL-184 + Olaparib; first compound 0.4 µM),relative viability (JZL-184 + Olaparib; first compound 1.265 µM),relative viability (JZL-184 + Olaparib; first compound 4 µM),relative viability (JZL-184 + Decitabine; first compound 0.04 µM),relative viability (JZL-184 + Decitabine; first compound 0.4 µM),relative viability (JZL-184 + Decitabine; first compound 1.265 µM),relative viability (JZL-184 + Decitabine; first compound 4 µM),relative viability (JZL-184 + Alpelisib; first compound 0.04 µM),relative viability (JZL-184 + Alpelisib; first compound 0.4 µM),relative viability (JZL-184 + Alpelisib; first compound 1.265 µM),relative viability (JZL-184 + Alpelisib; first compound 4 µM),relative viability (JZL-184 + Pemetrexed; first compound 0.04 µM),relative viability (JZL-184 + Pemetrexed; first compound 0.4 µM),relative viability (JZL-184 + Pemetrexed; first compound 1.265 µM),relative viability (JZL-184 + Pemetrexed; first compound 4 µM)
EKVX,0.676,0.666,0.719,0.58,0.851,0.778,0.769,0.834,0.354,0.412,0.396,0.363,0.679,0.84,0.875,0.886,0.364,0.326,0.352,0.403
NCI-H1755,0.704,0.634,0.798,0.638,0.812,0.896,0.891,0.895,0.751,0.701,0.71,0.704,0.942,0.866,0.943,0.885,0.432,0.367,0.475,0.484
NCI-H1395,0.651,0.621,0.811,0.683,0.486,0.458,0.407,0.444,0.756,0.656,0.792,0.64,0.993,1.01,1.1,1.04,0.785,0.948,0.985,0.75
NCI-H2087,0.969,0.742,0.807,1,0.714,0.585,0.665,0.517,0.271,0.301,0.415,0.237,1.11,1.02,1.11,1.01,0.667,0.663,0.631,0.636
H3255,0.849,0.819,0.857,0.722,0.614,0.574,0.587,0.481,0.648,0.63,0.59,0.646,0.794,0.725,0.714,0.577,0.632,0.49,0.522,0.553
SK-MES-1,1.12,1.05,1.05,0.955,0.792,0.698,0.765,0.662,0.448,0.381,0.405,0.403,0.938,0.851,0.863,0.896,0.9,0.872,1,0.907
NCI-H23,0.62,,0.673,0.502,0.388,,0.303,0.366,0.275,,0.266,0.328,0.876,0.631,0.587,0.646,0.772,,0.704,0.597
HCC-827,0.942,0.244,0.577,0.839,0.556,0.607,0.718,0.627,0.297,0.191,0.306,0.312,0.724,0.927,0.981,0.952,0.222,0.199,0.178,0.261
HCC-78,0.405,,0.492,0.378,0.823,,0.831,0.768,0.77,,0.793,0.646,0.325,0.317,0.375,0.315,0.895,,0.875,0.919
UMC-11,0.405,0.415,0.381,0.304,0.349,0.333,0.308,0.354,0.738,0.521,0.616,0.733,1.39,0.904,0.924,0.96,0.916,0.755,0.876,0.79
NCI-H1975,0.731,0.694,0.718,0.635,0.849,0.726,0.876,0.694,0.429,0.368,0.413,0.397,0.751,0.673,0.642,0.577,0.307,0.281,0.296,0.263
COR-L23,0.649,0.472,0.477,0.459,0.379,0.365,0.315,0.4,0.474,0.414,0.412,0.397,1.02,0.672,0.704,0.708,0.195,0.191,0.179,0.192
SW 1573,0.824,0.64,0.788,0.551,0.68,0.351,0.454,0.479,0.818,0.449,0.484,0.463,0.873,0.605,0.894,0.75,1.11,0.842,0.915,0.876
NCI-H2126,0.753,0.698,0.76,0.737,0.892,0.891,0.975,0.925,0.597,0.608,0.558,0.555,0.721,0.738,0.802,0.717,0.663,0.66,0.726,0.705
